Consider 17 molecules from PubChem BioAssay (NCI).

Test in all cases: inhibition of tumour cell growth, NCI panel, 48 h
In assay [1] the test system is A498 renal.
In assay [2] the test system is A549 NSCLC.
Assay [3] concerns ACHN renal.
Assay [4] concerns DLD-1 colon.
Assay [5] relates to KM20L2 colon.
Assay [6] concerns LXFL 529 NSCLC.
In assay [7] the test system is SK-MEL-2 melanoma.
In assay [8] the test system is SK-OV-3 ovarian.
The subject of assay [9] is SNB-78 CNS.
The test system of assay [10] is OVCAR-5 ovarian.
The test system of assay [11] is DU-145 prostate.
Assay [12] concerns MCF7 breast.

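Assay format: 96-well plates, 48-hour exposure. TGI: total growth inhibition.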

Regarding `COC12CCC(=O)C=C1c1ccccc1N2C(C)=O` (configuration not stated), the TGI in [1], in assay [2], in assay [3], in assay [4], in assay [5] and in [6] was greater than 100 µM in each case. Further, the TGI in assay [7], in assay [8] and in assay [9] was greater than 100 µM throughout.

Turning to `CCCNC(=O)C1C(=O)C(=O)N(CCC)C1=O` (configuration not stated), the TGI in assay [1], in assay [2], in assay [3], in [4], in assay [5] and in [6] was greater than 100 µM each time. Also, the TGI in assay [10], in assay [7], in assay [8] and in assay [9] was greater than 100 µM in each case.

As to `CCNC(=O)COc1ccc(Br)cc1Br`, the TGI in assay [1], in assay [2], in assay [3], in [4], in [5] and in [6] was greater than 100 µM each time. The TGI in assay [10], in assay [7], in [8] and in assay [9] was greater than 100 µM throughout.

For the molecule `O=c1/c(=C/c2ccccc2[N+](=O)[O-])sc2nc3ccccc3n12`, the TGI in assay [1] is greater than 41.6 µM; in assay [2], greater than 46.4 µM; in assay [3], greater than 46.4 µM; in assay [4] it was 37.3 µM; in assay [5] it was greater than 100 µM; in assay [6], greater than 46.4 µM. Moreover, the TGI in [10] is greater than 46.4 µM; in assay [7] it was greater than 46.4 µM; in [8], greater than 31.6 µM; in assay [9] it was greater than 46.4 µM.

For `CC1=CC(=O)CC2(C)CC[C@@H]3C[C@]12OC3(C)C` (some centres not stated), the TGI in assay [1], in assay [2], in assay [3], in assay [4], in [5] and in assay [6] was greater than 100 µM each time. Further, the TGI in assay [10], in [7], in assay [8] and in [9] was greater than 100 µM in each case.

`O=C(CCC(=O)Nc1ccc(Cl)c(Cl)c1)CC(=O)c1ccc(Br)cc1`: the TGI in assay [1], in assay [2], in assay [3], in assay [4], in [5] and in [6] was greater than 100 µM each time. Moreover, the TGI in assay [10], in assay [7], in assay [8] and in assay [9] was greater than 100 µM in each case.

For `NCCSSCCN`, the TGI in assay [1], in assay [2], in assay [3], in [4], in [11] and in [5] was greater than 100 µM in each case. Besides, the TGI in [6], in assay [12], in [10], in assay [7], in assay [8] and in [9] was greater than 100 µM in each case.

On to `N/N=C1\C(=O)N(C2CCCCCC2)C(=O)C1C(=O)NC1CCCCCC1` (configuration not stated), for which the TGI was greater than 100 µM in assay [1]; greater than 100 µM in assay [2]; greater than 100 µM in [3]; greater than 100 µM in assay [4]; 38.1 µM in assay [5]; 78.3 µM in assay [6]. For the same molecule, the TGI in assay [10] was greater than 100 µM; in assay [7], 37.6 µM; in assay [9] it was 77.3 µM.

For the molecule `CCc1ccc(NC(=O)NC(=O)c2ccccc2[N+](=O)[O-])cc1Oc1ncc(Cl)cn1`, the TGI was 9.1 µM in assay [1]; greater than 100 µM in assay [2]; greater than 100 µM in [3]; greater than 100 µM in [4]; greater than 100 µM in assay [11]; 0.0481 µM in assay [5]. Also, the TGI in [6], in [12], in assay [10], in assay [8] and in assay [9] was greater than 100 µM each time.

As to `CN(C)CCNc1ccc(CO)c2sc3ccc(O)cc3c(=O)c12`, the TGI in assay [1] stood at 20.4 µM; in assay [2] it was 6.77 µM; in assay [3], 6.75 µM; in assay [4], 18.6 µM; in [11], 4.05 µM; in assay [5], 22.7 µM. Further, the TGI was 19 µM in assay [6]; 14.6 µM in assay [10]; 11.6 µM in assay [7]; 8.29 µM in assay [8]; greater than 45.6 µM in [9].

Turning to `CC(Oc1ccc2c(-c3ccccc3)cc(=O)oc2c1)C(=O)O` (configuration not stated), the TGI in assay [1], in assay [2], in assay [3], in assay [4], in assay [5] and in assay [6] was greater than 100 µM in each case. Further, the TGI in assay [8] and in assay [9] was greater than 100 µM each time.

As to `CCC(=O)c1c(NOC2OCC(OC(C)=O)C(OC(C)=O)C2OC(C)=O)nc(OC)n(C)c1=O` (configuration not stated), the TGI in assay [1], in assay [2], in assay [3], in [4], in assay [5] and in [6] was greater than 100 µM in each case. For the same molecule, the TGI in [10], in assay [8] and in [9] was greater than 100 µM throughout.

Turning to `COc1ccc(NC(=O)/C(=C/c2ccccc2)C(C)=O)cc1`, the TGI stood at 36.7 µM in [1]; 54.2 µM in assay [2]; 42.2 µM in assay [3]; 28.7 µM in assay [4]; 29.2 µM in assay [5]; 24.9 µM in [6]. Moreover, the TGI came to 34.1 µM in assay [10], 28.6 µM in assay [7], 95.1 µM in [8] and 44.8 µM in assay [9].

For the molecule `CC1/C=C/[C@@]2(C)CCC(C(C)(C)O)C2C(O)C[C@](C)(O)/C=C/C1` (some centres not stated), the TGI in [1], in assay [2], in assay [3], in assay [4], in assay [5] and in assay [6] was greater than 100 µM each time. Besides, the TGI in assay [10], in assay [7], in assay [8] and in assay [9] was greater than 100 µM in each case.

As to `CC(C)(C)c1cc(C(O)(C(F)(F)F)C(F)(F)F)c2c(c1)C(C(F)(F)F)(C(F)(F)F)OC(C)(C(C)(C)C)N2` (configuration not stated), the TGI in assay [2] is 33.4 µM; in [3], 12.1 µM; in assay [4], greater than 100 µM; in assay [5], greater than 100 µM; in assay [6], 14.1 µM; in assay [10], greater than 100 µM. The figures for the TGI in assay [7], in assay [8] and in assay [9] were 17.7 µM, 6.14 µM and 99 µM, respectively.

As for `Cc1ccccc1NC(=O)c1cc(-c2ccc([N+](=O)[O-])cc2)nc(=S)[nH]1`, the TGI in assay [2], in assay [3], in assay [4], in assay [5], in [6] and in assay [10] was greater than 100 µM throughout. Also, the TGI in assay [7], in assay [8] and in assay [9] was greater than 100 µM in each case.

As to `Cc1ccc(NC(=O)CCc2nc(N)nc(N)c2-c2ccccc2)cc1C`, the TGI in assay [1], in assay [2], in assay [3], in assay [4], in assay [5] and in [6] was greater than 100 µM in each case. Also, the TGI in assay [10], in [7], in [8] and in assay [9] was greater than 100 µM in each case.
